Measurements published in patent US8436002B2, “AKT inhibitors” (Eli Lilly and Company, priority 2009, dated 2013).
Read-outs that look alike come from different tables or passages of the source.

Experiments:
hAKT1 Human Recombinant = target: T1, hAKT1 Human Recombinant (Homo sapiens, UniProt P31749); assay: AKT1 In Vitro Enzyme Assay (Transcreener Kinase ADP-FP); format: biochemical; settings: 20 micromolar ATP; read-out: IC50 against AKT1
T1 construct: His tag; host or cells: insect cells
Method: Compound IC50 values against AKT1 target are determined using the AKT1 Transcreener™ Kinase ADP-FP Assay. This assay assesses the activity of AKT1 in the presence of compound inhibitors by measuring the concentration of adenosine diphosphate (ADP) formed in a kinase reaction. The kinase reactions (25 μL reaction volumes) are performed in 96-well half-area black polystyrene plates. Adenosine triphosphate (ATP) is added to start the reactions. Final reaction conditions are 56 millimolar N-2-hydroxyethylpiperazine-N′-2-ethanesulfonic acid (HEPES) pH 7.4, 0.008% TRITON™ X-100, 5 millimolar magnesium chloride, 30 micromolar Crosstide peptide, 20 micromolar ATP, hAKT1 Human Recombinant, V-AKT Murine Thymoma Viral Oncogene Homolog 1, histidine-tagged, expressed in insect cells, 4% dimethylsulfoxide and serial dilutions of compound (diluted 1:3 from 20,000 to 1 nanomolar). […] Quenched reactions are incubated for 4-16 hours, and then read in a Tecan Ultra Evolution plate reader in Fluorescence Polarization mode using polarizing filters of Ex612 nm and Em633 nm wavelength. […] The IC50 value for each compound is derived using percent inhibition data which is calculated using the micromolar ADP reaction data relative to on-plate controls (active enzyme versus 100 millimolar inhibited enzyme controls). […]

[1] = tested on: phosphorylated GSK3β (S9) in U87MG cells; assay: AlphaScreen SureFire detection of phosphorylated GSK3β (S9) in U87MG cells; format: cell-based; settings: Homo sapiens, U-87 MG, 1 hour, read-out: IC50, formation of phosphorylated GSK3β (S9)
Method: The effect of compounds on the formation of endogenous phosphorylated GSK3β serine 9 (pGSK3β) are measured using the AlphaScreen SureFire® for pGSK3β(TGRGBS10K). This is a homogeneous assay format using immuno-sandwich capture of the phosphorylated analyte followed by detection using antibody-coated Alphascreen beads to generate an amplified signal.
U87MG cells are maintained in U87MG growth medium consisting of DMEM supplemented with 10% Fetal bovine serum, 1% Nonessential amino acids and 1% sodium pyruvate. For the assay, cells are harvested by standard procedures and then counted using Vi-Cell. Cells (50,000/well) are plated in 100 μL of U87MG growth medium into Costar #3596 96 well plates. Plates are incubated overnight at 37° C., 5% CO2.
On the day of the assay, cells are treated with 20 μL/well compound diluted in media containing 6% dimethylsulfoxide. […] The plate is sealed with foil, incubated at room temperature for 4 hours with gentle shaking and then read on Perkin Elmer EnVision equipped with a TurboModule using standard AlphaScreen® settings (Ex680 nm and Em520-620 nm). The percent inhibition determined from controls on each plate and ten-point compound concentration data are then fit to a four-parameter logistic equation using ACTIVITYBASE 4.0 (Assay Guidance Manual Version 5.0, 2008, Eli Lilly and Company and NIH Chemical Genomics Center).

[2] = target: T2, ROCK2 Human recombinant enzyme (Homo sapiens, UniProt O75116); assay: ROCK2 In Vitro Enzyme Assay (Transcreener Kinase ADP-FP); format: biochemical; settings: 10 micromolar ATP; read-out: IC50 against ROCK2
T2 construct: ROCK2 Human recombinant enzyme (residues 11-552, histidine-tagged, expressed in insect cells); His tag; host or cells: insect cells
Method: Compound IC50 values against ROCK2 kinase are determined using the ROCK2 Transcreener™ Kinase ADP-FP Assay. This assay assesses the activity of ROCK2 in the presence of compound inhibitors by measuring the concentration of ADP formed in a kinase reaction. The kinase reactions (25 μL reaction volumes) are performed in 96-well half-area black polystyrene plates. Enzyme is added to start the reactions. Final reaction conditions are 20 millimolar 3-(N-Morpholino)-propanesulfonic acid pH 7.4, 4 millimolar beta-glycero-phosphate, 0.01% TRITON™ X-100, 5 millimolar magnesium chloride, 25 micromolar peptide substrate (sequence RFARKGSLRQKNV (SEQ ID NO:1)), 10 micromolar ATP, ROCK2 Human recombinant enzyme (residues 11-552, histidine-tagged, expressed in insect cells), 4% dimethysulfoxide and serial dilutions of compound (diluted 1:3 from 20,000 to 1 nanomolar). […] Quenched reactions are incubated for 4-16 hours, and then read in a Tecan Ultra Evolution plate reader in Fluorescence Polarization mode using polarizing filters of Ex612 nm and Em633 nm wavelength. […] The IC50 value for each compound is derived using percent inhibition data which is calculated using the micromolar ADP reaction data relative to on-plate controls (active enzyme versus 100 millimolar EDTA-inhibited enzyme controls). […]

AKT = AKT In Vivo Target Inhibition (Oral and Parenteral), U87MG tumors in athymic nude mice; settings: Mus musculus, U-87 MG, after 2 hours at 12.5 mg/kg, mean of 6 animals per group
Method: U87MG human glioblastoma cells (5×106) are subcutaneously implanted into the flank of athymic nude mice in 0.2 mL of matrigel. Two weeks post-implantation, mice are dosed orally or parenterally according to a time course, single dose/single time point, or dose response protocol for the determination of TMED50 (threshold minimum effective dose). Tumors are flash frozen at harvest and blood is collected for the determination of parent compound plasma exposure and the calculation of TMEC50 (threshold minimum effective concentration) in the case of dose response studies. Tumors or tissues are pulverized in liquid N2 and lysed in 400 μL of XY Lysis Buffer (10 μg/mL Leupeptin, 10 μg/mL Trypsin-Chymotrypsin Inhibitor, 10 μg/mL Tosyl phenyl-alanyl chloromethyl ketone, 10 μg/mL Aprotinin, 60 mM Beta-Glycerol Phosphate, 1% Triton X100, 25 mM Tris pH 7.5, 2.5 mM Pyrophosphate, 150 mM NaCl, 2 mM p-tosyl-L-arginine methyl ester, 15 mM para-nitrophenyl phosphate, 5 mM Benzamidine, 1 mM Na Vanadate, 10 mM NaF, 50 μg/mL phenyl-methane sulfonyl fluoride, 1 mM 1,4-Dithiothreitol (DTT), 15 mM EDTA pH 8.0, 5 mM EGTA pH 8.0, 1 μM Microcystin, 1 μM Okadaic Acid, and 1 Roche Complete protease inhibitor mini-tablet per 10 mL) using Lysing Matrix D tubes (MP Biomedicals, Solon, Ohio, cat #6913-500) and a BIO101 Thermo Savant Fast Prep FP12. Lysates are aliquoted and either assayed immediately or stored at −80° C. for later testing. In Vivo Target Inhibition of AKT is measured utilizing Meso Scale Discovery (Gaithersburg, Md.) ELISA technology to assess effects on phosphorylation of the downstream effectors FOXO, PRAS40 and GSK3β(S9). In summary, 20 μg of lysate is added to carbon electrode containing 96-well plates pre-spotted with the appropriate capture antibodies. The protein of interest is probed using a ruthenium labeled detection antibody. Upon the passage of current over the electrode in the presence of read buffer containing the co-reactant TPA, electro-chemiluminescence results in the generation of light which is quantified and recorded using the MSD Sector 6000 instrument. For each study, percent inhibitions are calculated relative to the vehicle control group and ANOVA analysis is performed using the JMP software package for the determination of statistical significance.

H1155 = assay: Cell proliferation combination study (CellTiter-Glo); format: cell-based
Method: (§1) The proliferation assay uses the CellTiter-Glo Luminescent Cell Viability Assay System (commercially available from Promega) to determine the cell number of viable cells in culture based on quantitation of the ATP present, which signals the presence of metabolically active cells.
(§2) The cells are plated in 96-well plate at 2000 cells/well in volume of 50 μL medium (DMEM, 10% FBS, 25 mM HEPES, 1.0 mM Sodium Pyruvate, and 0.1 mM Non Essential Amino Acids) except column 1 with medium only as blank control. The plates are incubated overnight at 37° C. and 5% CO2. On the next day, compound stocks are prepared at 40 mM in DMSO (500×) and serially diluted in DMSO in a 96-well round bottom polypropylene plate. Compounds are assayed at 10 concentrations in duplicate, 4 compounds per plate.
(§3) 4 μL of the serial DMSO dilutions are transferred to a 96 deep-well plate and 1 mL complete culture medium is added to create 2× stock for dosing. 50 μL of each 2× dosing stock is gently transferred to the corresponding well of the cell plate resulting in a 0.2% DMSO concentration and a 100 μL final volume. […] medium are added to the Control columns (Column 12) and background columns (Column 1). Cells are incubated with compound for at 37° C., 5% CO2 for 72 hr.
(§4) After incubation, 100 μL of the pre-prepared CellTiter-Glo reagent (Promega, Cat: G7571) is added in each well and then the cells are homogenized by mixing on an orbital shaker for 2 min and incubated at RT for 10 minutes to allow luminescent signal stabilization Luminescent raw data is recorded on Wallac Victor V plate reader and the IC50 value for each compound is generated using percent inhibition data. A four-parameter logistic curve is fit to each dose response.
(§5) Combination studies use the fixed ratio method, where the other therapeutic agent and the compound of the present invention are present in fixed ratios of concentrations corresponding to the IC50 equivalents of single agents. The read out for the combination studies is cell proliferation in respective cell lines using Cell Titer Glo reagents. Controls are processed similarly but without the compounds. Analysis of the data is done according to the method described in Zhao et. Al. (Clinical Cancer Research 10, 7994-8004, Dec. 1, 2004) utilizing an internally developed web based tool. A combination index is calculated for each cell proliferation inhibition activity level according to the equation below. Combination Index at activity level x=[Concentration of other therapeutic agent in the combination at the activity level x/ICx of the other therapeutic agent]+[Concentration of the compound of the present invention in the combination at the activity level x/ICx of the compound of the present invention]

MCF-7 = assay: as above; format: cell-based; settings: with Paclitaxel
Method: as §1, §2, §3, §4, §5

MDA-MB-231 = assay: as above; format: cell-based; settings: with Paclitaxel
Method: as §1, §2, §3, §4, §5

T2 sequence (O75116 11-552): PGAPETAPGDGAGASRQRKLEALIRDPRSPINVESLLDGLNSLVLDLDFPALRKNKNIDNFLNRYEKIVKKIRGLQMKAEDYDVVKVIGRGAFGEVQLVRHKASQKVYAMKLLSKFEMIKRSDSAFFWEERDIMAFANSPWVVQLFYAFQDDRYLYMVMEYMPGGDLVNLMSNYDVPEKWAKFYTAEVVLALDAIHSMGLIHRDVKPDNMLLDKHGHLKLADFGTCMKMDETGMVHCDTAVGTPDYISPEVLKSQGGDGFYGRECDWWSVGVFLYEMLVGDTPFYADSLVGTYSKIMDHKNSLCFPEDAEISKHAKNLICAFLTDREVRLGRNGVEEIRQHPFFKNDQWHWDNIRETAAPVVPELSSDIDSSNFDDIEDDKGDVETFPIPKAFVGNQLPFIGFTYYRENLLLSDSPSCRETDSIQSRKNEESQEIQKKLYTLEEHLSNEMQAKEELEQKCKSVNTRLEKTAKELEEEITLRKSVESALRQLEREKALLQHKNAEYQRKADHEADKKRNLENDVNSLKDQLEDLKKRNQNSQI
T1 sequence (P31749 whole entry): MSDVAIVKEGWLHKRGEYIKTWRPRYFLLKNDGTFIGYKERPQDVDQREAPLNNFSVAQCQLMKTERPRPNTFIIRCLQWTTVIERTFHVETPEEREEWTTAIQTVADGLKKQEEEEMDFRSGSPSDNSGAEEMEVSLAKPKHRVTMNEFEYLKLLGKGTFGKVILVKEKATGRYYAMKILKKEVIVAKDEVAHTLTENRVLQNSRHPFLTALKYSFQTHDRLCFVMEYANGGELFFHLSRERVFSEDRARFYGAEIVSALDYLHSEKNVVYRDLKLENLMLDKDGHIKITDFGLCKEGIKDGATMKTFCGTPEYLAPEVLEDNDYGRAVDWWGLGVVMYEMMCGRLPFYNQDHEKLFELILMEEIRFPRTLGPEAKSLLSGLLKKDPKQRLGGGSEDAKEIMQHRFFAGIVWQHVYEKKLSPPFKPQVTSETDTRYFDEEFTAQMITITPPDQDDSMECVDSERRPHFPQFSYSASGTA

How did the IC50 (hAKT1 Human Recombinant) turn out when `C[C@@H]1CC(=O)Nc2ncnc(N3CCC(c4nc(Cl)cn4CCN4CCCC4)CC3)c21` [Example 41, (R)-4-(4-(4-chloro-1-(2-(pyrrolidin-1-yl)ethyl)-1H-imidazol-2-yl)piperidin-1-yl)-5-methyl-5,6-dihydropyrido[2,3-d]pyrimidin-7(8H)-one] was run?
The IC50 was 0.017 µM.

What about the IC50 [1] of the same molecule?
Its IC50 is 1.5 µM.

And the IC50 [2]?
The IC50 was greater than 20 µM.

How did the inhibition at 12.5 mg/kg (AKT; read-out: Mean % Inhibition FOXO3a (T32)) turn out when `CCc1cn(CCN2CCCC2)c(C2CCN(c3ncnc4c3[C@H](C(F)(F)F)CC(=O)N4)CC2)n1` [Example 26, (R)-4-(4-(4-ethyl-1-(2-(pyrrolidin-1-yl)ethyl)-1H-imidazol-2-yl)piperidin-1-yl)-5-(trifluoromethyl)-5,6-dihydropyrido[2,3-d]pyrimidin-7(8H)-one] was run?
Its inhibition at 12.5 mg/kg is 36.8%.

What about the inhibition at 12.5 mg/kg (AKT; read-out: Mean % Inhibition pAKT (S473)) of the same molecule?
Its inhibition at 12.5 mg/kg is 21.7%.

What about the inhibition at 12.5 mg/kg (AKT; read-out: Mean % Inhibition pGSK3β (S9)) of the same molecule?
The inhibition at 12.5 mg/kg was 34.4%.

What about the inhibition at 12.5 mg/kg (AKT; read-out: Mean % Inhibition pPRAS40 (T246)) of the same molecule?
The inhibition at 12.5 mg/kg was 8.1%.

Which “Combination Index at 50% Inhibition” value (H1155; with Cisplatin) does the source give for `C[C@@H]1CC(=O)Nc2ncnc(N3CCC(c4nc(C5CCOCC5)cn4CCN4CCCC4)CC3)c21` [Example 73, (R)-5-Methyl-4-(4-(1-(2-(pyrrolidin-1-yl)ethyl)-4-(tetrahydro-2H-pyran-4-yl)-1H-imidazol-2-yl)piperidin-1-yl)-5,6-dihydropyrido[2,3-d]pyrimidin-7(8H)-one] here?
The value was 0.82.

And the “Combination Index at 50% Inhibition” value (H1155; with Gemcitabine)?
The value was 0.87.

What about the “Combination Index at 50% Inhibition” value (H1155; with Pemetrexed) of the same molecule?
Its value is 0.29.

What about the “Combination Index at 50% Inhibition” value (MCF-7) of the same molecule?
The value was 0.56.

What about the “Combination Index at 50% Inhibition” value (MDA-MB-231) of the same molecule?
Its value is 1.25.
